Species: Rattus norvegicus
Assay: DrugMatrix - Regimen: Daily Repeat
Type: toxicity, organism-based, Sprague-Dawley
Set-up: regimen Daily Repeat, gender Male, age 6-8 weeks
Details: in vivo, po, route oral GAVAGE, […]; for ABSOLUTE BASOPHIL / ABSOLUTE EOSINOPHIL / ABSOLUTE LYMPHOCYTE / ABSOLUTE MONOCYTE / ABSOLUTE SEGMENTED NEUTROPHIL / BASOPHIL / EOSINOPHIL / ERYTHROCYTE COUNT / HEMATOCRIT / HEMOGLOBIN / LEUKOCYTE COUNT / LYMPHOCYTE / MEAN CORPUSCULAR HEMOGLOBIN / MEAN CORPUSCULAR HEMOGLOBIN CONCENTRATION / MEAN CORPUSCULAR VOLUME / MONOCYTE / NEUTROPHIL / NUCLEATED RED BLOOD CELLS / PLATELET COUNT: tissue Blood; for ALANINE AMINOTRANSFERASE / ALBUMIN / ALKALINE PHOSPHATASE / ASPARTATE AMINOTRANSFERASE / BLOOD UREA NITROGEN / CARBON DIOXIDE / CHLORIDE / CHOLESTEROL / CREATINE PHOSPHOKINASE / CREATININE / GLUCOSE / LACTATE DEHYDROGENASE / LIPASE / PHOSPHORUS / POTASSIUM / SODIUM / TOTAL BILIRUBIN / TOTAL PROTEIN / URIC ACID: tissue Plasma
[1] = 0 mg/kg, 72 h, dose level Control, time 3 day
[2] = 0 mg/kg, 120 h, dose level Control, time 5 day
[3] = 10 mg/kg, 72 h, dose level Low, time 3 day

`COc1cc(N)c(Cl)cc1C(=O)NC1CCN(CCCOc2ccc(F)cc2)CC1OC` (centres undefined) [CISAPRIDE] was tested, and the “ABSOLUTE BASOPHIL” value [1] was 0 CELLS/uL, the “ABSOLUTE EOSINOPHIL” value [1] was 13.67 CELLS/uL and the “ABSOLUTE LYMPHOCYTE” value [1] was 10069.5 CELLS/uL. For the same compound, the “ABSOLUTE MONOCYTE” value [1] was 50 CELLS/uL, the “ABSOLUTE SEGMENTED NEUTROPHIL” value [1] was 516.83 CELLS/uL and the BASOPHIL [1] was 0%. For the same compound, the EOSINOPHIL [1] was 0.17%, the “ERYTHROCYTE COUNT” value [1] was 5.44 x10E6/uL and the HEMATOCRIT [1] was 33.88%. For the same compound, the HEMOGLOBIN [1] was 13.23 G/DL, the “LEUKOCYTE COUNT” value [1] was 10.65 x10E3/uL and the LYMPHOCYTE [1] was 94.67%. The “MEAN CORPUSCULAR HEMOGLOBIN” value [1] was 24.37 pg, the “MEAN CORPUSCULAR HEMOGLOBIN CONCENTRATION” value [1] was 39.05 G/DL and the “MEAN CORPUSCULAR VOLUME” value [1] was 62.38 fL. For the same compound, the MONOCYTE [1] was 0.67%, the NEUTROPHIL [1] was 4.5% and the “NUCLEATED RED BLOOD CELLS” value [1] was 0.33 /100WBC. The “PLATELET COUNT” value [1] was 414.5 x10E3/uL, the “ALANINE AMINOTRANSFERASE” value [1] was 72 u/L and the ALBUMIN [1] was 3.75 G/DL. The “ALKALINE PHOSPHATASE” value [1] was 375 u/L, the “ASPARTATE AMINOTRANSFERASE” value [1] was 87.5 u/L and the “BLOOD UREA NITROGEN” value [1] was 14 mg/dL. For the same compound, the “CARBON DIOXIDE” value [1] was 27.5 mmol/L, the CHLORIDE [1] was 95.83 MEQ/L and the CHOLESTEROL [1] was 68.5 mg/dL. The “CREATINE PHOSPHOKINASE” value [1] was 284.33 u/L, the CREATININE [1] was 0.16 mg/dL and the GLUCOSE [1] was 156.67 mg/dL. The “LACTATE DEHYDROGENASE” value [1] was 101.83 u/L, the LIPASE [1] was 9.67 u/L and the PHOSPHORUS [1] was 10.33 mg/dL. For the same compound, the POTASSIUM [1] was 5.22 MEQ/L, the SODIUM [1] was 137.67 MEQ/L and the “TOTAL BILIRUBIN” value [1] was 0.13 mg/dL. The “TOTAL PROTEIN” value [1] was 5.43 G/DL, the “URIC ACID” value [1] was 0.8 mg/dL and the “ABSOLUTE BASOPHIL” value [2] was 0 CELLS/uL. For the same compound, the “ABSOLUTE EOSINOPHIL” value [2] was 20.67 CELLS/uL, the “ABSOLUTE LYMPHOCYTE” value [2] was 11518.33 CELLS/uL and the “ABSOLUTE MONOCYTE” value [2] was 47 CELLS/uL. The “ABSOLUTE SEGMENTED NEUTROPHIL” value [2] was 614 CELLS/uL, the BASOPHIL [2] was 0% and the EOSINOPHIL [2] was 0.17%. For the same compound, the “ERYTHROCYTE COUNT” value [2] was 5.61 x10E6/uL, the HEMATOCRIT [2] was 34.25% and the HEMOGLOBIN [2] was 13.38 G/DL. The “LEUKOCYTE COUNT” value [2] was 12.2 x10E3/uL, the LYMPHOCYTE [2] was 94.33% and the “MEAN CORPUSCULAR HEMOGLOBIN” value [2] was 23.83 pg. For the same compound, the “MEAN CORPUSCULAR HEMOGLOBIN CONCENTRATION” value [2] was 39.08 G/DL, the “MEAN CORPUSCULAR VOLUME” value [2] was 61.03 fL and the MONOCYTE [2] was 0.33%. For the same compound, the NEUTROPHIL [2] was 5.17%, the “NUCLEATED RED BLOOD CELLS” value [2] was 0 /100WBC and the “PLATELET COUNT” value [2] was 941.83 x10E3/uL. The “ALANINE AMINOTRANSFERASE” value [2] was 68.83 u/L, the ALBUMIN [2] was 4.12 G/DL and the “ALKALINE PHOSPHATASE” value [2] was 492.67 u/L. The “ASPARTATE AMINOTRANSFERASE” value [2] was 83.33 u/L, the “BLOOD UREA NITROGEN” value [2] was 14 mg/dL and the “CARBON DIOXIDE” value [2] was 37 mmol/L. For the same compound, the CHLORIDE [2] was 98.67 MEQ/L, the CHOLESTEROL [2] was 56.5 mg/dL and the “CREATINE PHOSPHOKINASE” value [2] was 167.33 u/L. For the same compound, the CREATININE [2] was 0.17 mg/dL, the GLUCOSE [2] was 157.5 mg/dL and the “LACTATE DEHYDROGENASE” value [2] was 104.83 u/L. For the same compound, the LIPASE [2] was 10 u/L, the PHOSPHORUS [2] was 10.43 mg/dL and the POTASSIUM [2] was 5.46 MEQ/L. For the same compound, the SODIUM [2] was 143.87 MEQ/L, the “TOTAL BILIRUBIN” value [2] was 0.17 mg/dL and the “TOTAL PROTEIN” value [2] was 5.72 G/DL. The “URIC ACID” value [2] was 0.85 mg/dL, the “ABSOLUTE BASOPHIL” value [3] was 0 CELLS/uL and the “ABSOLUTE EOSINOPHIL” value [3] was 28.67 CELLS/uL. The “ABSOLUTE LYMPHOCYTE” value [3] was 6489.33 CELLS/uL, the “ABSOLUTE MONOCYTE” value [3] was 15.33 CELLS/uL and the “ABSOLUTE SEGMENTED NEUTROPHIL” value [3] was 433.33 CELLS/uL. The BASOPHIL [3] was 0%, the EOSINOPHIL [3] was 0.33% and the “ERYTHROCYTE COUNT” value [3] was 5.4 x10E6/uL. The HEMATOCRIT [3] was 33.3%, the HEMOGLOBIN [3] was 13.8 G/DL and the “LEUKOCYTE COUNT” value [3] was 6.97 x10E3/uL. For the same compound, the LYMPHOCYTE [3] was 93%, the “MEAN CORPUSCULAR HEMOGLOBIN” value [3] was 25.63 pg and the “MEAN CORPUSCULAR HEMOGLOBIN CONCENTRATION” value [3] was 41.53 G/DL. For the same compound, the “MEAN CORPUSCULAR VOLUME” value [3] was 61.73 fL, the MONOCYTE [3] was 0.33% and the NEUTROPHIL [3] was 6.33%. For the same compound, the “NUCLEATED RED BLOOD CELLS” value [3] was 0 /100WBC, the “PLATELET COUNT” value [3] was 546 x10E3/uL and the “ALANINE AMINOTRANSFERASE” value [3] was 94.67 u/L. The ALBUMIN [3] was 3.93 G/DL, the “ALKALINE PHOSPHATASE” value [3] was 442.33 u/L and the “ASPARTATE AMINOTRANSFERASE” value [3] was 96.33 u/L. The “BLOOD UREA NITROGEN” value [3] was 14.33 mg/dL, the “CARBON DIOXIDE” value [3] was 26 mmol/L and the CHLORIDE [3] was 96.33 MEQ/L. The CHOLESTEROL [3] was 72.67 mg/dL, the “CREATINE PHOSPHOKINASE” value [3] was 359.33 u/L and the CREATININE [3] was 0.12 mg/dL. The GLUCOSE [3] was 150 mg/dL, the “LACTATE DEHYDROGENASE” value [3] was 116.67 u/L and the LIPASE [3] was 12 u/L. For the same compound, the PHOSPHORUS [3] was 10.9 mg/dL, the POTASSIUM [3] was 5.56 MEQ/L and the SODIUM [3] was 139.97 MEQ/L. The “TOTAL BILIRUBIN” value [3] was 0.2 mg/dL, the “TOTAL PROTEIN” value [3] was 5.53 G/DL and the “URIC ACID” value [3] was 0.7 mg/dL.

From ChEMBL document CHEMBL3885881, “DrugMatrix”
